In patent US11926826B2, “Twist signaling inhibitor compositions and methods of using the same” (City of Hope, priority 2016, dated 2024):

Experiments:
[1] = tested on: TWIST1; test: Western blotting of TWIST1 during cisplatin exposure; assay type: cell-based, human; conditions: Ov8GFP-TWIST1 cells; 5 μM cisplatin over 24 hr
Description: (§1) Western blotting. Cells were pelleted and washed once with phosphate buffered saline (PBS), then lysed in RIPA buffer. Protein concentration was determined using a BCA assay (Thermo Fisher). Equal masses of protein were run on 4% stacking, 10% resolving polyacrylamide gels, and then transferred to PVDF membrane (GE Healthcare Bio-Sciences, Pittsburgh, PA) using the Trans-Blot SD Semi-Dry Transfer Cell (Bio-Rad). Membranes were blocked in dry milk dissolved in PBS with shaking for 1 hr at room temperature or overnight at 4° C. 3% BSA was used for blocking prior to select pAkt blots to reduce background signal. Primary and secondary antibodies were diluted as indicated below in 5% dry milk in PBS with 0.1-0.2% Tween-20. Incubation was performed at room temperature for one hr or overnight at 4° C. for primary, and at room temperature for one hr for secondary. Each antibody incubation was followed by five 5 min washes in PBS with 0.1% Tween-20. FemtoGlow HRP substrate (Michigan Diagnostics, Royal Oak, MI) and the Pxi4 chemiluminescent imager (Syngene, Frederick, MD) were used to acquire digital images. ECL 2 (Thermo Fisher) and Blue Devil Film (Genesee Scientific) were used to acquire film images. […] For select digital and film westerns, bands were quantified using GeneTools software from Syngene or Image Studio Lite from LiCor (Lincoln, NB), respectively, and normalized to β-Actin.

[2] = tested on: Phospho Akt (Ser473); test: Western blotting of Akt phosphorylated at Ser 473 during cisplatin exposure; assay type: cell-based, human; conditions: 24 hr
Description: as §1

[3] = tested on: Akt; test: Western blotting of total Akt during cisplatin exposure; assay type: cell-based, human
Description: as §1

[4] = tested on: A2780R cells; test: Sulphorhodamine B cell survival assay with cisplatin, A2780R; assay type: cell-based; conditions: without YTZ3-15-si494 treatment
Description: Sulphorhodamine B Cell Survival Assays. A2780R or Ovcar8-IP cells were plated in 6 well plates and allowed to adhere overnight. The following day, cells were transfected with siQ, si419, or si494 as described above—A2780R cells using YTZ3-15 and Ovcar8-IP cells using MSNs. After 48-72 hours, cells were transferred to 96 well plates at 5,000 cells per well and allowed to adhere overnight. The following day cells were treated with cisplatin at a series of concentrations (cells not treated with cisplatin served as controls). After 72 hours, cells were fixed in 10% trichloroacetic acid for 1 hour at 4° C., washed with water, and dried. Cells were stained in 0.4% sulphorhodamine B (SRB) in 1% acetic acid for 15 minutes at room temperature and then washed 3-4 times with 1% acetic acid until no further color was present in the wash. Any stray SRB on the walls of the wells was removed, and stained cells were dried for 10 minutes. SRB was solubilized in 10 mM Tris base and color intensity was quantified by absorbance at 570 nm. Each condition was normalized to its own untreated control.

[5] = tested on: Ovcar8-IP tumors; test: Ovcar8-IP intraperitoneal tumor model in NSG mice, MSN-siRNA with or without cisplatin; assay type: in vivo
Description: Animal Studies. The animal studies conducted in these experiments were done in accordance with a protocol approved by the Institutional Animal Care and Use Committee at the City of Hope Beckman Research Institute. A total of 48 female NOD.Cg-Prkdc^scidIl2rg^tm1Wj1/SzJ (NSG) mice (The Jackson Laboratory, Bar Harbor, ME) were used. Ten week old (on average) mice were administered an intraperitoneal injection (IP) of 2.5×10^6 Ovcar8-IP cells in 200 μl of RPMI media. For all studies, mice were placed into four groups: MSN-siQ, MSN-siQ+cisplatin, MSN-si419H, and MSN-si419H+cisplatin (n=4 or n=8). Previous reports show no cellular uptake without MSNs^14, thus a siRNA-only group was not added to this study.
Bioluminescent imaging of mice (using Xenogen IVIS 100 biophotonic imaging system, STTARR, Toronto, Ontario, Canada) commenced seven days after injection of tumor cells in order to ensure engraftment, and continued once a week for four weeks. Mice were given a 100 μl IP injection of 20 mg/ml D-Luciferin (PerkinElmer, Waltham, MA). Ten minutes after the D-luciferin injection, mice were anesthetized with isoflurane (2%-5%) and placed in the biophotonic imager, and images were taken within two minutes. An alfalfa-free version of the regular rodent diet (alfalfa-free CA-1) was administered to the siQ mice to prevent autofluorescence from the regular diet.
IP injections of MSN+siRNA (siQ fluorescently labeled with ALEXAFLUOR® 647 or si419H) were conducted one week after the inoculation of Ovcar8-IP cells and done once or twice per week for a total of four weeks. Mice received 105 μl of 500 ng/μl MSN complexed with 15 μl of 10 μM siRNA per week, divided into one full or two half doses (n=4 and n=8, respectively). This is equivalent to […] MSN/week. Weekly 3 mg/kg IP cisplatin injections were given starting two weeks after initial inoculation of cells.
At completion of the experiment, all animals were euthanized via CO2 asphyxiation. […]
Statistics. All in vivo data was analyzed using one-way ANOVA with correction for multiple comparisons, comparing all groups to MSN-siQ treatment group. […]

**Q.** With `N.N.[Cl][Pt][Cl]` [cisplatin] as the molecule, how does the “increase in TWIST1 expression” value [1] read?
**A.** up to 2.3 fold

**Q.** What about the “increase in proportion of Akt phosphorylated at Ser 473” value ([2]; Ov8GFP-TWIST1 cells, siQ, 5 μM cisplatin, normalized to total Akt) of the same molecule?
**A.** 128%

**Q.** And the “reduction in phosphorylated Akt” value ([2]; Ov8GFP-sh492 cells, cisplatin)?
**A.** 63%

**Q.** What about the “increase in Akt levels” value ([3]; Ov8GFP-TWIST1 cells, siQ, 5 μM cisplatin over 24 hr) of the same molecule?
**A.** 150%

**Q.** What about the “total Akt levels” value ([3]; Ov8GFP-sh492 cells, cisplatin over 24 hr) of the same molecule?
**A.** relatively constant

**Q.** What about the IC50 [4] of the same molecule?
**A.** ~200 µM

**Q.** What about the “reduction of metastasis incidence (number of disseminated masses)” value ([5]; FIG. 21B) of the same molecule?
**A.** approximately 50%

**Q.** What about the “proportion of mice developing ascites” value ([5]; n=4 per group) of the same molecule?
**A.** 2/4
